# Assay results reported in patent publication US10800741B2 (ANCUREALL PHARMACEUTICAL (SHANGHAI) CO., LTD., priority 2017, dated 2020).
# Key:
# [1] = test system: human non-small cell lung cancer cell line NCI-H1299 (NRAS Q61K mutation); assay: Growth inhibition in combination with MEK1/2 inhibitor Trametinib, NCI-H1299 (NRAS Q61K mutation); assay type: cell-based; conditions: 5 days
# Protocol: Test Example 5 Synergistic Inhibition Effect of the Present Compounds in Combination with MEK1/2 Inhibitor on the Growth of RAS Mutant Tumor Cells In Vitro
# The cell culture, drug treatment and MTT assay of human intestinal cancer cell line HCT116 (KRAS G13D mutation) and human non-small cell lung cancer cell line NCI-H1299 (NRAS Q61K mutation) were performed according to the method of test example 1. Cells were treated with the MEK1/2 inhibitor Trametinib at 25 nM, 2.5 nM and 0.25 nM alone or in combination with compound 66 or 125 of the present invention (5 days).
# protein kinases [2] = target: T1, protein kinases (Homo sapiens, UniProt P00519, Y253F); assay: KINOMEscan in vitro binding to 468 labeled protein kinases; conditions: ABL1(Y253F)-phosphorylated, read-out: Test compound/solvent control (%)
# T1 construct: purchased Discovery X company (USA), KINOMEscan screening platform
# Protocol: (§1) Test Example 6 Determination of Binding Affinity of the Present Compounds on Protein Kinases In Vitro
# (§2) KINOMEscan screening platform of Discovery X company (USA) was used to identify the binding targets of the present compounds to protein kinases. Compound 66 of the present invention was dissolved in DMSO (Sigma Aldrich) at concentrations of 1000 nM, 10 nM and 1 nM, and then was subjected to in vitro binding reaction with 468 labeled protein kinases. Two samples were taken in parallel for each assay sample.
# (§3) The lower the percentage of the test compound to the solvent control, the stronger the binding affinity of the test compound to the protein kinase in vitro.
# protein kinases [3] = target: T2, protein kinases (Homo sapiens, UniProt P00533, G719S); assay: as above; conditions: EGFR(G719S)
# T2 construct: purchased Discovery X company (USA), KINOMEscan screening platform
# Protocol: as §1, §2, §3
# protein kinases [4] = target: T3, protein kinases (Homo sapiens, UniProt P08631); assay: as above; conditions: HCK, read-out: Test compound/solvent control (%)
# T3 construct: purchased Discovery X company (USA), KINOMEscan screening platform
# Protocol: as §1, §2, §3
# protein kinases [5] = target: T4, protein kinases (Homo sapiens, UniProt P09619); assay: as above; conditions: PDGFRB, read-out: Test compound/solvent control (%)
# T4 construct: purchased Discovery X company (USA), KINOMEscan screening platform
# Protocol: as §1, §2, §3
# protein kinases [6] = target: T5, protein kinases (Homo sapiens, UniProt P11362); assay: as above; conditions: FGFR1, read-out: Test compound/solvent control (%)
# T5 construct: purchased Discovery X company (USA), KINOMEscan screening platform
# Protocol: as §1, §2, §3
# protein kinases [7] = target: T6, protein kinases (Homo sapiens, UniProt P16234); assay: as above; conditions: PDGFRA, read-out: Test compound/solvent control (%)
# T6 construct: purchased Discovery X company (USA), KINOMEscan screening platform
# Protocol: as §1, §2, §3
# protein kinases [8] = target: T7, protein kinases (Homo sapiens, UniProt P22455); assay: as above; conditions: FGFR4, read-out: Test compound/solvent control (%)
# T7 construct: purchased Discovery X company (USA), KINOMEscan screening platform
# Protocol: as §1, §2, §3
# protein kinases [9] = target: T8, protein kinases (Homo sapiens, UniProt P22607, G697C); assay: as above; conditions: FGFR3(G697C), read-out: Test compound/solvent control (%)
# T8 construct: purchased Discovery X company (USA), KINOMEscan screening platform
# Protocol: as §1, §2, §3
# AN3-CA = AN3-CA subcutaneous transplantation tumor model, tumor growth inhibition in vivo; design: species or system Bab/c immunodeficient mice; conditions: 5 mg/kg i.p once a day, 17th day after the administration
# Text: Test Example 7 Inhibition of Tumour Cell Growth In Vivo
# In order to establish subcutaneous transplantation tumor models of human non-small cell lung cancer and endometrial adenocarcinoma, Bab/c immunodeficient mice were subcutaneously inoculated with NCI-H1581 (ATCC) and AN3-CA (ATCC) cells, respectively.
# Experimental animals: 6-week female Bab/c immunodeficient mice (about 20 g in weight). The mice were purchased from Shanghai Sippr-BK Experimental Animal Co., Ltd., raised in Animal Center of Shanghai University of Traditional Chinese Medicine, approved by Ethical Committee of Shanghai University of Traditional Chinese Medicine. The breeding environment was SPF grade. […]
# When the tumor volume reached 100˜200 mm^3, the mice were randomly divided according to tumor size. […] The tumor was measured three times a week, and the tumor volume was calculated as: long diameter×short diameter^2/2. […] Efficacy was assessed based on relative tumor growth inhibition value (TGI), and safety was assessed based on animal weight change. […]
# Tumor volume data of 17 days after the start of administration were selected for statistical analysis among different groups, and independent sample T test was used to compare whether there were significant differences in relative tumor volume between the administration group and the control group. All data were analyzed using SPSS 18.0. […]
# T5 sequence (P11362 22-822): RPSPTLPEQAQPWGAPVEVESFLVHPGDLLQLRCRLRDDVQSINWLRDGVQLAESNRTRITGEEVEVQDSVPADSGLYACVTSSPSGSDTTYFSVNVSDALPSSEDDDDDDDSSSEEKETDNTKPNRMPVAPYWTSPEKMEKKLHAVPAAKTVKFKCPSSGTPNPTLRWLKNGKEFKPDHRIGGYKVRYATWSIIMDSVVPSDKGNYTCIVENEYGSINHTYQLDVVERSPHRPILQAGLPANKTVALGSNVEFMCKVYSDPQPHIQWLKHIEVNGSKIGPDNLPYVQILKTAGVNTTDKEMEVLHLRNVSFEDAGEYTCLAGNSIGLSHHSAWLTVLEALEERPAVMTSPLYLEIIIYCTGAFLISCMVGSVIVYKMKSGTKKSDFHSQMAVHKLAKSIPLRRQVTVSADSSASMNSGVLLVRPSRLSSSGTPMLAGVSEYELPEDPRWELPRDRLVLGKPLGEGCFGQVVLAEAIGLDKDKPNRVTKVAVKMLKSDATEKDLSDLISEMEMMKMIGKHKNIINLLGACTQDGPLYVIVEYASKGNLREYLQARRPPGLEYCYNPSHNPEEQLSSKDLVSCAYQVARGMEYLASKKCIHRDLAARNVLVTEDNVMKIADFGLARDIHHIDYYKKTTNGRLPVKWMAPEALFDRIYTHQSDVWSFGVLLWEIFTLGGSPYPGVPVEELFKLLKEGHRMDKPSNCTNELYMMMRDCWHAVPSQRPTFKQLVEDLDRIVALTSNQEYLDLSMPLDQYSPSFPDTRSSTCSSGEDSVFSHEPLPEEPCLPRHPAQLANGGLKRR
# T2 sequence (P00533 25-1210 G719S): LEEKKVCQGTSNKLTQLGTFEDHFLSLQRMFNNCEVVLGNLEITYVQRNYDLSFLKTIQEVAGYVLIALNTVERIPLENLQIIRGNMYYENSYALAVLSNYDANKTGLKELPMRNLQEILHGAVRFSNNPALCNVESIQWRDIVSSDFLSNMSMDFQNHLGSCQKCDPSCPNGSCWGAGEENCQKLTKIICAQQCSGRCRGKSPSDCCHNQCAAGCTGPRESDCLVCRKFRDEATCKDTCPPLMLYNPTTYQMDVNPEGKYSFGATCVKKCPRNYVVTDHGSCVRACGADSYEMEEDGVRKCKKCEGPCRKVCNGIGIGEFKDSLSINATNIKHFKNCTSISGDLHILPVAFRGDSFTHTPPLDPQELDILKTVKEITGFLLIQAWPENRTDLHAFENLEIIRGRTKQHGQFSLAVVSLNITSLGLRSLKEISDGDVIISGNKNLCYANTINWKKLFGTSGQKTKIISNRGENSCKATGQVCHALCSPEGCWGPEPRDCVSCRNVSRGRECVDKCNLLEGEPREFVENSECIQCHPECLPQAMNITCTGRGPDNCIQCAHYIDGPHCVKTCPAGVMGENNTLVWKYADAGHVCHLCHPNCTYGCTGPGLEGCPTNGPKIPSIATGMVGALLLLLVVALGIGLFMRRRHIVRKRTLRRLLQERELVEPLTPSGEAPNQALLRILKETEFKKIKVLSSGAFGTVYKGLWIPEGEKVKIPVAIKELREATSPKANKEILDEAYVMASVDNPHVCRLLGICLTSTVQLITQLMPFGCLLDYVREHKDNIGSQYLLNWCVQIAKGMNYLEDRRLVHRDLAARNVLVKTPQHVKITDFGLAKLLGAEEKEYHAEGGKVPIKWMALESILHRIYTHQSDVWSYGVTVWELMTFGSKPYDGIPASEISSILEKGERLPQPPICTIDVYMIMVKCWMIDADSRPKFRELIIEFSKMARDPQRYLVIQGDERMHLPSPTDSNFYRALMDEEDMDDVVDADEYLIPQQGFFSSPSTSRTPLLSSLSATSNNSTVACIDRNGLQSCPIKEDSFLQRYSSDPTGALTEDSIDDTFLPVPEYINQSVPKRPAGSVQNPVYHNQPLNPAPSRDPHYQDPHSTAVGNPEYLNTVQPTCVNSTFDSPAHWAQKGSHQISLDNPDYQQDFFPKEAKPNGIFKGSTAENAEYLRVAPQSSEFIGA
# T4 sequence (P09619 33-1106): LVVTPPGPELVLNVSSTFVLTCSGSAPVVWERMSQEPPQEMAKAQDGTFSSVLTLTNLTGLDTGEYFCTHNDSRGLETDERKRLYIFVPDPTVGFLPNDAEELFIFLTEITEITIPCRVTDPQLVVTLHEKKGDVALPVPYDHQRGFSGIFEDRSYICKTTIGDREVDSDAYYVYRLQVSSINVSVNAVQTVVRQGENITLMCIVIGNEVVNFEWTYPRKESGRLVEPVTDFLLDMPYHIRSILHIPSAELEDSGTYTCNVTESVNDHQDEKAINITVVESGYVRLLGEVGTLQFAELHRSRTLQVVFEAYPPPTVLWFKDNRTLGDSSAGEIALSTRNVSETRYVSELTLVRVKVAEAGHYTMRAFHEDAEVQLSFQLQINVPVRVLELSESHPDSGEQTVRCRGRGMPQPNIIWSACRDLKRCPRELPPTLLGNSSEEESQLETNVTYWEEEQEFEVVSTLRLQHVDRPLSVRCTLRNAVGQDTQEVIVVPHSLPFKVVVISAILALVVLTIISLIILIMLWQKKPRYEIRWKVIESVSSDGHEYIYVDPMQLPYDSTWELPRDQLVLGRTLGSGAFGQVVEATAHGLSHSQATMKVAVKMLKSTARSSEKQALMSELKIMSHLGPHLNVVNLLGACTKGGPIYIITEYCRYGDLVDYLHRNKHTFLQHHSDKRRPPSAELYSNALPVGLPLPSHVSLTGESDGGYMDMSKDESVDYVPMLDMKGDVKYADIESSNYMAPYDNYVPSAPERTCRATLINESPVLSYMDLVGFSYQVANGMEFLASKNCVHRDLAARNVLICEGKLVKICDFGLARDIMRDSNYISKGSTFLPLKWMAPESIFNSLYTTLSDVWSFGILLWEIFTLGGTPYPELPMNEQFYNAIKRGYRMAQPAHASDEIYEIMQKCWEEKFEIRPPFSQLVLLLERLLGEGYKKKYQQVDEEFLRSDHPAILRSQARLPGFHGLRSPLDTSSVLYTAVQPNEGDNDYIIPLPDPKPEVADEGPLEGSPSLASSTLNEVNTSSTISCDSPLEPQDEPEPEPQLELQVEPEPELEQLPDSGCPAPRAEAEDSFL
# T7 sequence (P22455 22-802): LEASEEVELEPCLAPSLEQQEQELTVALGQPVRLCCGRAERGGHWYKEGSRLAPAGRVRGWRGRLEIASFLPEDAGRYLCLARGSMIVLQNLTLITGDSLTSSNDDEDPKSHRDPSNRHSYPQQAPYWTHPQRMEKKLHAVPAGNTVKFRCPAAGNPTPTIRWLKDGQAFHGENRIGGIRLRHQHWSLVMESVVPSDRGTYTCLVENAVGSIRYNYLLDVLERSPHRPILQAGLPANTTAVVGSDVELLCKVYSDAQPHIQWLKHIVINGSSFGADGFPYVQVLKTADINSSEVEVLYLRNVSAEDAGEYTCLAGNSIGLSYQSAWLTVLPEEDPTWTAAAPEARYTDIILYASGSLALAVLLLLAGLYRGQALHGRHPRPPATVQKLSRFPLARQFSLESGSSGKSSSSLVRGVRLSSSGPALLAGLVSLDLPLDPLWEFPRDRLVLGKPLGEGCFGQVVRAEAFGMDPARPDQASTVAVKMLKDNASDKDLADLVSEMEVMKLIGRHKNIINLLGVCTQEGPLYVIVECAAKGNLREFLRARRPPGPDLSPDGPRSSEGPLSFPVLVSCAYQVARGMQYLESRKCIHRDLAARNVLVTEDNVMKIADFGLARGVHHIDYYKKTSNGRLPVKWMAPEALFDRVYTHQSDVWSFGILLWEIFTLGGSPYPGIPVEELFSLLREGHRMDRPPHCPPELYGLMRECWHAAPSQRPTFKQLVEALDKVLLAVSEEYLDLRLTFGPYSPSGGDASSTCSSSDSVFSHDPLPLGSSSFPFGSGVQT
# T3 sequence (P08631 whole entry): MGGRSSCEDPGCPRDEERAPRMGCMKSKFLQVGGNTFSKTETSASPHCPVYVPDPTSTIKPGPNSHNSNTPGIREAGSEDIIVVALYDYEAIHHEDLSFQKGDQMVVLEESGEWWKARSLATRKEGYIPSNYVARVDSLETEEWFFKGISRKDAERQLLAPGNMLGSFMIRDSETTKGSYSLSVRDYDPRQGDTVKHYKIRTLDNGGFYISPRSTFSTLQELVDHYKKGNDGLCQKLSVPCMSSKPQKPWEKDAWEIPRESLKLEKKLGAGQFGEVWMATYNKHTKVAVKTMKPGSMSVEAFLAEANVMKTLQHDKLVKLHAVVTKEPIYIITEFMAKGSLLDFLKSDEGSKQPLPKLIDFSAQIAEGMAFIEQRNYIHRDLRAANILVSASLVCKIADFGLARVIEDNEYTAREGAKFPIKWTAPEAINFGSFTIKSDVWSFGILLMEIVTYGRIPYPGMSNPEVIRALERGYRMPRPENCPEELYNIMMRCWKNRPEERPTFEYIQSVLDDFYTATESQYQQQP
smiles,measurement,setting,value
"COCCOc1cc2nccc(Oc3ccc(NC(=O)Nc4cc(C(C)(C)C)n[nH]4)c(Cl)c3)c2cc1NC(C)=O [Compound 66, N-[4-{4-[3-(5-tert-butyl-2H-pyrazol-3-yl)-ureido]-3-chloro-phenoxy}-7-(2-methoxy-ethoxy)-quinolin-6-yl]-acetamide]",inhibition at 0.0078 µM,"[1]; Homo sapiens, NCI-H1299, 120 h, compound 7.8 nM alone (solvent instead of Trametinib), read-out: cell growth inhibition (percentage)",1.39%
same,inhibition at 0.0156 µM,"[1]; Homo sapiens, NCI-H1299, 120 h, compound 15.6 nM alone (solvent instead of Trametinib), read-out: cell growth inhibition (percentage)",4.59%
same,cell growth inhibition (percentage),[1]; compound 7.8 nM + Trametinib 0.25 nM,11.67%
same,cell growth inhibition (percentage),[1]; compound 7.8 nM + Trametinib 2.5 nM,20.73%
same,cell growth inhibition (percentage),[1]; compound 7.8 nM + Trametinib 25 nM,37.88%
same,cell growth inhibition (percentage),[1]; compound 15.6 nM + Trametinib 0.25 nM,16.82%
same,cell growth inhibition (percentage),[1]; compound 15.6 nM + Trametinib 2.5 nM,26.10%
same,cell growth inhibition (percentage),[1]; compound 15.6 nM + Trametinib 25 nM,42.52%
same,remaining binding at 0.001 µM,protein kinases [2]; 1 nM,80%
same,remaining binding at 0.01 µM,protein kinases [2]; 10 nM,11%
same,remaining binding at 1 µM,protein kinases [2]; 1000 nM,0.1%
same,Test compound/solvent control (%),protein kinases [3]; 1 nM,77%
same,Test compound/solvent control (%),protein kinases [3]; 10 nM,18%
same,Test compound/solvent control (%),protein kinases [3]; 1000 nM,0%
same,remaining binding at 0.001 µM,protein kinases [4]; 1 nM,60%
same,remaining binding at 0.01 µM,protein kinases [4]; 10 nM,1.7%
same,remaining binding at 1 µM,protein kinases [4]; 1000 nM,0%
same,remaining binding at 0.001 µM,protein kinases [5]; 1 nM,81%
same,remaining binding at 0.01 µM,protein kinases [5]; 10 nM,6.2%
same,remaining binding at 1 µM,protein kinases [5]; 1000 nM,0%
same,remaining binding at 0.001 µM,protein kinases [6]; 1 nM,56%
same,remaining binding at 0.01 µM,protein kinases [6]; 10 nM,4.5%
same,remaining binding at 1 µM,protein kinases [6]; 1000 nM,0.3%
same,remaining binding at 0.001 µM,protein kinases [7]; 1 nM,88%
same,remaining binding at 0.01 µM,protein kinases [7]; 10 nM,34%
same,remaining binding at 1 µM,protein kinases [7]; 1000 nM,0.15%
same,remaining binding at 0.001 µM,protein kinases [8]; 1 nM,93%
same,remaining binding at 0.01 µM,protein kinases [8]; 10 nM,74%
same,remaining binding at 1 µM,protein kinases [8]; 1000 nM,0%
same,remaining binding at 0.001 µM,protein kinases [9]; 1 nM,81%
same,remaining binding at 0.01 µM,protein kinases [9]; 10 nM,54%
same,remaining binding at 1 µM,protein kinases [9]; 1000 nM,0.05%
same,T/C (%),AN3-CA,1.37%
same,TGI (%),AN3-CA,98.63%
